According to ChEMBL document CHEMBL1201862, “PubChem BioAssay data set” (2004):
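Method: 48-hour compound exposure of cells in 96-well plates, five concentrations, linear interpolation of endpoints. Here, GI50 denotes the concentration required for 50% inhibition of growth.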 Activity calls are given as the source filed them. Rule as the data show it: active = GI50 up to about 1.1 µM and inactive = higher.

What was measured:
Assay in all cases: inhibition of tumour cell growth, NCI panel, 48 h
786-0 = tested on: 786-0
A498 = tested on: A498
A549 = tested on: A549
ACHN = tested on: ACHN
BT-549 = tested on: BT-549
CAKI-1 = tested on: CAKI-1
CCRF-CEM = tested on: CCRF-CEM
COLO 205 = tested on: COLO 205
DU-145 = tested on: DU-145
EKVX = tested on: EKVX
HCC 2998 = tested on: HCC 2998
HCT-116 = tested on: HCT-116
HCT-15 = tested on: HCT-15
HL-60 = tested on: HL-60
HOP-62 = tested on: HOP-62
HOP-92 = tested on: HOP-92
HT-29 = tested on: HT-29
Hs-578T = tested on: Hs-578T
K562 = tested on: K562
KM12 = tested on: KM12
LOX IMVI = tested on: LOX IMVI
M14 = tested on: M14
MCF7 = tested on: MCF7
MDA-MB-231 = tested on: MDA-MB-231
MDA-MB-435 = tested on: MDA-MB-435
MDA-N = tested on: MDA-N
MOLT-4 = tested on: MOLT-4
Malme-3M = tested on: Malme-3M
NCI-H226 = tested on: NCI-H226
NCI-H23 = tested on: NCI-H23
NCI-H460 = tested on: NCI-H460
NCI-H522 = tested on: NCI-H522
NCI/ADR-RES = tested on: NCI/ADR-RES
OVCAR-3 = tested on: OVCAR-3
OVCAR-4 = tested on: OVCAR-4
OVCAR-5 = tested on: OVCAR-5
OVCAR-8 = tested on: OVCAR-8
PC-3 = tested on: PC-3
RXF 393 = tested on: RXF 393
SF-268 = tested on: SF-268
SF-295 = tested on: SF-295
SF-539 = tested on: SF-539
SK-MEL-28 = tested on: SK-MEL-28
SK-MEL-2 = tested on: SK-MEL-2
SK-MEL-5 = tested on: SK-MEL-5
SK-OV-3 = tested on: SK-OV-3
SN12C = tested on: SN12C
SNB-19 = tested on: SNB-19
SNB-75 = tested on: SNB-75
SR = tested on: SR
SW-620 = tested on: SW-620
T47D = tested on: T47D
TK-10 = tested on: TK-10
U-251 = tested on: U-251
UACC-257 = tested on: UACC-257
UACC-62 = tested on: UACC-62
UO-31 = tested on: UO-31

Clc1ccc(-c2nnc3sc4nc5ccccc5c-4nn23)c(Cl)c1
GI50 (786-0): 52.6 µM (inactive)
GI50 (A498): 36.4 µM (inactive)
GI50 (A549): 41.7 µM (inactive)
GI50 (ACHN): 82.8 µM (inactive)
GI50 (BT-549): 28.9 µM (inactive)
GI50 (CAKI-1): 34.7 µM (inactive)
GI50 (CCRF-CEM): 36.5 µM (inactive)
GI50 (COLO 205): 56.4 µM (inactive)
GI50 (DU-145): 72.1 µM (inactive)
GI50 (EKVX): 28.8 µM (inactive)
GI50 (HCC 2998): 28.7 µM (inactive)
GI50 (HCT-116): 40.7 µM (inactive)
GI50 (HCT-15): 34.9 µM
GI50 (HL-60): 41.7 µM (inactive)
GI50 (HOP-62): 67 µM (inactive)
GI50 (HOP-92): 19.1 µM (inactive)
GI50 (HT-29): 55.7 µM (inactive)
GI50 (Hs-578T): 21.7 µM (inactive)
GI50 (K562): 31.8 µM (inactive)
GI50 (KM12): 37.5 µM (inactive)
GI50 (LOX IMVI): 44 µM (inactive)
GI50 (M14): 48.3 µM (inactive)
GI50 (MCF7): 43.3 µM (inactive)
GI50 (MDA-MB-231): 99.3 µM (inactive)
GI50 (MDA-MB-435): 32.6 µM (inactive)
GI50 (MDA-N): 28.6 µM (inactive)
GI50 (MOLT-4): 36.8 µM (inactive)
GI50 (Malme-3M): 49.4 µM (inactive)
GI50 (NCI-H226): 64.3 µM (inactive)
GI50 (NCI-H23): 29 µM (inactive)
GI50 (NCI-H460): 41.8 µM (inactive)
GI50 (NCI-H522): 26.2 µM (inactive)
GI50 (NCI/ADR-RES): 34.4 µM (inactive)
GI50 (OVCAR-3): 29 µM (inactive)
GI50 (OVCAR-4): 42 µM (inactive)
GI50 (OVCAR-5): 50.6 µM (inactive)
GI50 (OVCAR-8): 50 µM (inactive)
GI50 (PC-3): 43.3 µM (inactive)
GI50 (RXF 393): 78.9 µM (inactive)
GI50 (SF-268): 33.7 µM (inactive)
GI50 (SF-295): 36.2 µM (inactive)
GI50 (SF-539): 50.9 µM (inactive)
GI50 (SK-MEL-28): 43.9 µM (inactive)
GI50 (SK-MEL-2): 30.6 µM (inactive)
GI50 (SK-MEL-5): 42.8 µM (inactive)
GI50 (SK-OV-3): 95.1 µM (inactive)
GI50 (SN12C): 50.6 µM (inactive)
GI50 (SNB-19): 49.4 µM (inactive)
GI50 (SNB-75): 71 µM (inactive)
GI50 (SR): 44.9 µM (inactive)
GI50 (SW-620): 46 µM (inactive)
GI50 (T47D): 59.2 µM (inactive)
GI50 (TK-10): 55.2 µM (inactive)
GI50 (U-251): 36.6 µM (inactive)
GI50 (UACC-257): 38.5 µM (inactive)
GI50 (UACC-62): 33.5 µM (inactive)
GI50 (UO-31): 62.4 µM (inactive)
